Measurements published in US20150111815A1, “NOVEL CYCLOSPORIN DERIVATIVES FOR THE TREATMENT AND PREVENTION OF VIRAL INFECTIONS” (S&T Global Inc., priority 2011, published 2015).
*1 amine or outer side, *2 acyl side, *3 side chain or, on linkers, in order; H or OH if unused. Where a SMILES comes first, the peptide text is derived from it. [ ]: non-standard residue; d: D form. ξ: configuration not given here. MeBmt = C/C=C/C[C@@H](C)[C@@H](O)[C@H](NC)C(=O)O; X2 = C=CCOC(C)(C)C[C@@H](C(=O)[*:2])N(C)[*:1]; X1 = CCN(CC)CC[C@H](C(=O)[*:2])N(C)[*:1]; X3 = CN(C)CCC[C@H](C(=O)[*:2])N(C)[*:1]; NMeIle(3ξ) = CCC(C)[C@H](NC)C(=O)O; NMeL = CN[C@@H](CC(C)C)C(=O)O; NMeV = CN[C@H](C(=O)O)C(C)C; Abu = CC[C@H](N)C(=O)O

Tested on: HCV replicon in cell line ET (luc-ubi-neo/ET), Huh7 human hepatoma cells
Experiment: HCV subgenomic replicon assay (luciferase end point)
Assay type: cell-based
Conditions: HCV replicon-derived luciferase activity, Huh7 ET cells; read-out: Antiviral activity: IC50
Protocol: The anti-HCV activity of cyclosporine derivatives were evaluated in the HCV subgenomic replicon assay. The assay use the cell line ET (luc-ubi-neo/ET), which is a Huh7 human hepatoma cell line harboring an HCV replicon with a stable luciferase (Luc) reporter. HCV RNA replication was assessed by quantifying HCV replicon-derived luciferase activity. The antiviral activity of cyclosporine analogs were evaluated after drug treatment, the EC 50 and EC 90 were determined in subsequent assessments by using the luciferase end point (Krieger, N., et al., 2001, J. Virol. 75, 4614-4624; Pietschmann, T., et al., 2002, J. Virol. 76, 4008-4021; each of which is incorporated herein by reference).

Question: For C/C=C/C[C@@H](C)[C@@H](O)[C@H]1C(=O)N[C@@H](CC)C(=O)N(C)C(CCCN(C)C)C(=O)N(C)[C@@H](CC(C)C)C(=O)N[C@@H](C(C)C)C(=O)N(C)[C@@H](CC(C)C)C(=O)N[C@@H](C)C(=O)N[C@H](C)C(=O)N(C)[C@@H](CC(C)C)C(=O)N(C)[C@@H](CC(C)C)C(=O)N(C)[C@@H](C(C)C)C(=O)N1C (stereo partly drawn) [[(R,S)-3-(N,N-Dimethylamino)propyl-Sar]-3-cyclosporin], which IC50 is on record?
Answer: Its IC50 is under 1.5 µM.

Question: With “[(R)-2-(N,N-Dimethylamino)ethyl-Sar]-3-[NMeLeu]-4-cyclosporin” as the molecule, how does the IC50 read?
Answer: Its IC50 is under 0.25 µM.

Question: With “[(R,S)-2-(N,N-Dimethylamino)ethyl-Sar]-3-cyclosporin” as the molecule, how does the IC50 read?
Answer: The IC50 was under 1.5 µM.

Question: Which IC50 does the source give for “[(S)-2-(N,N-Diethylamino)ethyl-Sar]-3-cyclosporin” here?
Answer: Its IC50 is under 5 µM.

Same assay, conditions: Hepatitis C virus, Huh-7, read-out: Antiviral activity: IC50 (μM)

Question: Which IC50 does the source give for C=CCOC(C)(C)C[C@H]1C(=O)N[C@@H](C(C)C)C(=O)N(C)[C@@H](CC(C)C)C(=O)N[C@@H](C)C(=O)N[C@H](C)C(=O)N(C)[C@@H](CC(C)C)C(=O)N(C)[C@@H](CC(C)C)C(=O)N(C)[C@@H](C(C)C)C(=O)N(C)[C@@H]([C@H](O)[C@H](C)C/C=C/C)C(=O)N[C@@H](CC)C(=O)N(C)[C@H](CCN(CC)CC)C(=O)N1C [Example 28, [(R)-2-(N,N-Diethylamino)ethyl-Sar]-3-[(γ-allyloxy)-NMeLeu]-4-cyclosporin] (cyclo(A[dA][NMeL][NMeL][NMeV][MeBmt][Abu][X1][X2]V[NMeL])) here?
Answer: The IC50 was under 0.25 µM.

Question: Which IC50 does the source give for C/C=C/C[C@@H](C)[C@@H](O)[C@H]1C(=O)N[C@@H](CC)C(=O)N(C)[C@H](CCN(CC)CC)C(=O)N(C)[C@@H](C(C)C)C(=O)N[C@@H](C(C)C)C(=O)N(C)[C@@H](CC(C)C)C(=O)N[C@@H](C)C(=O)N[C@H](C)C(=O)N(C)[C@@H](CC(C)C)C(=O)N(C)[C@@H](CC(C)C)C(=O)N(C)[C@@H](C(C)C)C(=O)N1C [Example 29, [(R)-2-(N,N-Diethylamino)ethyl-Sar]-3-[NMeVal]-4-cyclosporin] (cyclo(A[dA][NMeL][NMeL][NMeV][MeBmt][Abu][X1][NMeV]V[NMeL])) here?
Answer: Its IC50 is under 0.25 µM.

Question: For C/C=C/C[C@@H](C)[C@@H](O)[C@H]1C(=O)N[C@@H](CC)C(=O)N(C)[C@H](CCN(CC)CC)C(=O)N(C)[C@@H](C(C)CC)C(=O)N[C@@H](C(C)C)C(=O)N(C)[C@@H](CC(C)C)C(=O)N[C@@H](C)C(=O)N[C@H](C)C(=O)N(C)[C@@H](CC(C)C)C(=O)N(C)[C@@H](CC(C)C)C(=O)N(C)[C@@H](C(C)C)C(=O)N1C (stereo partly drawn) [Example 30, [(R)-2-(N,N-Diethylamino)ethyl-Sar]-3-[NMeIle]-4-cyclosporin] (cyclo(A[dA][NMeL][NMeL][NMeV][MeBmt][Abu][X1][NMeIle(3ξ)]V[NMeL])), which IC50 is on record?
Answer: The IC50 was under 0.25 µM.

Question: With C/C=C/C[C@@H](C)[C@@H](O)[C@H]1C(=O)N[C@@H](CC)C(=O)N(C)[C@@H](CCN(C)C)C(=O)N(C)[C@@H](CC(C)(C)O)C(=O)N[C@@H](C(C)C)C(=O)N(C)[C@@H](CC(C)C)C(=O)N[C@@H](C)C(=O)N[C@H](C)C(=O)N(C)[C@@H](CC(C)C)C(=O)N(C)[C@@H](CC(C)C)C(=O)N(C)[C@@H](C(C)C)C(=O)N1C [Example 32, [(S)-2-(N,N-Dimethylamino)ethyl-Sar]-3-[(γ-hydroxy)-NMeLeu]-4-cyclosporin] as the molecule, how does the IC50 read?
Answer: The IC50 was under 5 µM.

Question: For C/C=C/C[C@@H](C)[C@@H](O)[C@H]1C(=O)N[C@@H](CC)C(=O)N(C)[C@@H](CCN(CC)CC)C(=O)N(C)[C@@H](CC(C)(C)O)C(=O)N[C@@H](C(C)C)C(=O)N(C)[C@@H](CC(C)C)C(=O)N[C@@H](C)C(=O)N[C@H](C)C(=O)N(C)[C@@H](CC(C)C)C(=O)N(C)[C@@H](CC(C)C)C(=O)N(C)[C@@H](C(C)C)C(=O)N1C [Example 33, [(S)-2-(N,N-Diethylamino)ethyl-Sar]-3-[(γ-hydroxy)-NMeLeu]-4-Cyclosporin], which IC50 is on record?
Answer: Its IC50 is under 5 µM.

Question: For C/C=C/C[C@@H](C)[C@@H](O)[C@H]1C(=O)N[C@@H](CC)C(=O)N(C)[C@H](CCCN(C)C)C(=O)N(C)[C@@H](CC(C)(C)O)C(=O)N[C@@H](C(C)C)C(=O)N(C)[C@@H](CC(C)C)C(=O)N[C@@H](C)C(=O)N[C@H](C)C(=O)N(C)[C@@H](CC(C)C)C(=O)N(C)[C@@H](CC(C)C)C(=O)N(C)[C@@H](C(C)C)C(=O)N1C [Example 37, [(R)-3-(N,N-Dimethylamino)propyl-Sar]-3-[(γ-hydroxy)-NMeLeu]-4-cyclosporin], which IC50 is on record?
Answer: The IC50 was under 0.25 µM.

Question: Which IC50 does the source give for C/C=C/C[C@@H](C)[C@@H](O)[C@H]1C(=O)N[C@@H](CC)C(=O)N(C)[C@H](CCCN(C)C)C(=O)N(C)[C@@H](CC(C)(C)OC)C(=O)N[C@@H](C(C)C)C(=O)N(C)[C@@H](CC(C)C)C(=O)N[C@@H](C)C(=O)N[C@H](C)C(=O)N(C)[C@@H](CC(C)C)C(=O)N(C)[C@@H](CC(C)C)C(=O)N(C)[C@@H](C(C)C)C(=O)N1C [Example 39, [(R)-3-(N,N-Dimethylamino)propyl-Sar]-3-[(γ-methoxy)-NMeLeu]-4-cyclosporin] here?
Answer: The IC50 was under 0.25 µM.

Question: Which IC50 does the source give for C=CCOC(C)(C)C[C@H]1C(=O)N[C@@H](C(C)C)C(=O)N(C)[C@@H](CC(C)C)C(=O)N[C@@H](C)C(=O)N[C@H](C)C(=O)N(C)[C@@H](CC(C)C)C(=O)N(C)[C@@H](CC(C)C)C(=O)N(C)[C@@H](C(C)C)C(=O)N(C)[C@@H]([C@H](O)[C@H](C)C/C=C/C)C(=O)N[C@@H](CC)C(=O)N(C)[C@H](CCCN(C)C)C(=O)N1C [Example 41, [(R)-3-(N,N-Dimethylamino)propyl-Sar]-3-[(γ-allyloxy)-NMeLeu]-4-cyclosporin] (cyclo(A[dA][NMeL][NMeL][NMeV][MeBmt][Abu][X3][X2]V[NMeL])) here?
Answer: The IC50 was under 0.25 µM.

Question: Which IC50 does the source give for C/C=C/C[C@@H](C)[C@@H](O)[C@H]1C(=O)N[C@@H](CC)C(=O)N(C)[C@H](CCCN(C)C)C(=O)N(C)[C@@H](C(C)C)C(=O)N[C@@H](C(C)C)C(=O)N(C)[C@@H](CC(C)C)C(=O)N[C@@H](C)C(=O)N[C@H](C)C(=O)N(C)[C@@H](CC(C)C)C(=O)N(C)[C@@H](CC(C)C)C(=O)N(C)[C@@H](C(C)C)C(=O)N1C [Example 43, [(R)-3-(N,N-Dimethylamino)propyl-Sar]-3-[NMeVal]-4-cyclosporin] (cyclo(A[dA][NMeL][NMeL][NMeV][MeBmt][Abu][X3][NMeV]V[NMeL])) here?
Answer: The IC50 was under 0.25 µM.

Question: Which IC50 does the source give for C/C=C/C[C@@H](C)[C@@H](O)[C@H]1C(=O)N[C@@H](CC)C(=O)N(C)[C@H](CCCN(C)C)C(=O)N(C)[C@@H](C(C)CC)C(=O)N[C@@H](C(C)C)C(=O)N(C)[C@@H](CC(C)C)C(=O)N[C@@H](C)C(=O)N[C@H](C)C(=O)N(C)[C@@H](CC(C)C)C(=O)N(C)[C@@H](CC(C)C)C(=O)N(C)[C@@H](C(C)C)C(=O)N1C (stereo partly drawn) [Example 45, [(R)-3-(N,N-Dimethylamino)propyl-Sar]-3-[NMeIle]-4-cyclosporin] (cyclo(A[dA][NMeL][NMeL][NMeV][MeBmt][Abu][X3][NMeIle(3ξ)]V[NMeL])) here?
Answer: Its IC50 is under 0.25 µM.

Tested on: HCV
Experiment: not given
Conditions: reported in Hopkins, S. et al., 2010; read-out: in vitro anti-HCV activity (EC50); cited from earlier work

Question: For C/C=C/C[C@@H](C)[C@@H](O)[C@H]1C(=O)N[C@@H](CC)C(=O)N(C)[C@H](SCCN(C)C)C(=O)N(C)[C@@H](CC(C)(C)O)C(=O)N[C@@H](C(C)C)C(=O)N(C)[C@@H](CC(C)C)C(=O)N[C@@H](C)C(=O)N[C@H](C)C(=O)N(C)[C@@H](CC(C)C)C(=O)N(C)[C@@H](CC(C)C)C(=O)N(C)[C@@H](C(C)C)C(=O)N1C [SCY-635], which EC50 is on record?
Answer: The EC50 was 100 nM.
